In PubChem BioAssay (NCI) one finds GI50 and TGI data, which are given here for ten molecules.

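Exposure lasted 48 hours, with cells grown in 96-well plates and compounds tested at five concentrations. GI50 is the concentration that inhibits growth by half. TGI denotes the concentration required for complete inhibition of growth.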

Test systems include A498 renal; HCC-2998 colon; KM12 colon; DU-145 prostate; MDA-MB-435; HT29 colon; SW-620 colon; BT-549 breast; SF-539 CNS; EKVX NSCLC.
Common to all, as to assay: NCI tumour cell line growth inhibition, 48 h

`O=C1OC(=O)C(c2c[nH]c3ccccc23)=C1c1c[nH]c2ccccc12`: the GI50 in the assay with A498 renal, in the assay with HCC-2998 colon, in the assay with KM12 colon, with DU-145 prostate, with MDA-MB-435 and in the assay with HT29 colon was above 25 µM each time. Further, the GI50 in the assay with SW-620 colon, in the assay on BT-549 breast and in the assay with SF-539 CNS was above 25 µM throughout. Further, the TGI with A498 renal, in the assay on HCC-2998 colon, in the assay on KM12 colon, in the assay on DU-145 prostate, with MDA-MB-435 and with HT29 colon was above 25 µM throughout. For the same molecule, the TGI with SW-620 colon, in the assay on BT-549 breast and in the assay with SF-539 CNS was above 25 µM throughout.

On to `Nc1c(C(=O)Nc2cccc([N+](=O)[O-])c2)sc2nc3c(cc12)C(O)CCC3` (stereo not given), for which the GI50 was 2.7 µM in the assay on A498 renal; above 100 µM in the assay on HCC-2998 colon; 3.5 µM with KM12 colon; 20.5 µM in the assay on DU-145 prostate; 0.403 µM with MDA-MB-435; 2.89 µM in the assay with HT29 colon. In addition, the GI50 in the assay on SW-620 colon was 3.48 µM; in the assay on BT-549 breast it was 7.76 µM; in the assay with SF-539 CNS, 5.06 µM. For the same molecule, the TGI in the assay with A498 renal was above 100 µM; with HCC-2998 colon, above 100 µM; with KM12 colon, above 100 µM; in the assay with DU-145 prostate, above 100 µM; in the assay with MDA-MB-435 it was 2.78 µM; with HT29 colon, above 100 µM. Moreover, the TGI in the assay on SW-620 colon is above 100 µM; in the assay on BT-549 breast it was 57.3 µM; in the assay with SF-539 CNS it was above 93.7 µM.

With `Cc1sc(C(=O)Nc2cc(C(=O)NCCCN(C)C)n(C)c2)cc1NC(=O)CCCN1C(=O)c2cccc3cccc(c23)C1=O`, the GI50 in the assay with A498 renal, in the assay on HCC-2998 colon, with KM12 colon, in the assay with DU-145 prostate, in the assay with MDA-MB-435 and in the assay with HT29 colon was above 100 µM throughout. Moreover, the GI50 in the assay with EKVX NSCLC, in the assay on SW-620 colon and with SF-539 CNS was above 100 µM throughout. The TGI in the assay with A498 renal, in the assay with HCC-2998 colon, in the assay on KM12 colon, in the assay on DU-145 prostate, in the assay on MDA-MB-435 and in the assay with HT29 colon was above 100 µM in each case. Besides, the TGI in the assay with EKVX NSCLC, in the assay on SW-620 colon and with SF-539 CNS was above 100 µM each time.

Take `CCOC(=O)C1=C(C)N(Cc2ccccc2)C(C)=C(C(=O)OCC)C1c1ccccc1O`: the TGI is 91.4 µM in the assay on A498 renal; above 100 µM in the assay with HCC-2998 colon; 64.4 µM in the assay with KM12 colon; above 100 µM in the assay with HT29 colon; 95.9 µM with EKVX NSCLC; above 100 µM with SW-620 colon. In the assay with SF-539 CNS, this molecule showed a TGI of 88.8 µM.

For `Cc1ccc(/C=C2\CN(C(=O)OC(C)(C)C)C/C(=C\c3ccc(C)cc3)C2=O)cc1`, the TGI with A498 renal is above 100 µM; in the assay on HCC-2998 colon it was 0.927 µM; in the assay on KM12 colon it was above 100 µM; in the assay with DU-145 prostate, above 100 µM; in the assay on HT29 colon it was above 40.7 µM; in the assay with EKVX NSCLC, above 100 µM. Further, the TGI is above 100 µM in the assay on SW-620 colon and 28.7 µM in the assay with BT-549 breast. In addition, the GI50 with HCC-2998 colon is 0.268 µM; in the assay with KM12 colon it was 0.149 µM; in the assay on DU-145 prostate it was 0.158 µM; in the assay on HT29 colon it was 0.46 µM; in the assay with SW-620 colon it was 0.437 µM; with BT-549 breast it was 0.221 µM.

For `CC(C)(C)OC(=O)C#CC[C@H]1CCCC1/C=C/C(O)=C1/C(=O)NC(CCCNC(=O)OC(C)(C)C)C1=O` (stereo not given in full), the TGI in the assay on A498 renal, in the assay on HCC-2998 colon, in the assay on KM12 colon, in the assay on HT29 colon, with EKVX NSCLC and in the assay on SW-620 colon was above 100 µM throughout. Further, the TGI with SF-539 CNS was 83.1 µM.

As for `COC(=O)CCC(NC(=S)N/N=C(\C)c1nccs1)C(=O)OC` (stereo not given), the TGI in the assay with A498 renal, in the assay on HCC-2998 colon, in the assay on KM12 colon, with HT29 colon, in the assay with EKVX NSCLC and with SW-620 colon was above 100 µM throughout. Besides, in the assay on SF-539 CNS, the TGI is above 100 µM.

With `NC(=S)N/N=C(/CC(=O)c1ccccc1)C(=O)Nc1ccc(Cl)c(Cl)c1`, the TGI in the assay with A498 renal, with HCC-2998 colon, with KM12 colon, with HT29 colon, in the assay with EKVX NSCLC and with SW-620 colon was above 100 µM each time. In the assay on SF-539 CNS, this molecule had a TGI above 100 µM.

As to `CC1=NCCc2c1[nH]c1cc(O)ccc21`, the TGI with A498 renal, in the assay with HCC-2998 colon, in the assay with KM12 colon, with HT29 colon, in the assay with EKVX NSCLC and in the assay on SW-620 colon was above 100 µM in each case. In the assay with SF-539 CNS, this molecule displayed a TGI above 100 µM.

In the case of `O=Cc1cn(C(=O)c2ccccc2)c2ccccc12`, the TGI with A498 renal, in the assay on HCC-2998 colon, in the assay on KM12 colon, with HT29 colon, in the assay with EKVX NSCLC and in the assay on SW-620 colon was above 100 µM in each case. Besides, the TGI in the assay with SF-539 CNS is above 100 µM.
